Assay results taken from PMC8634768 (ChemistryOpen, 2021).

Columns and labels:
[1] = biological target: Hsp90α (Homo sapiens, UniProt P07900); assay: fluorescence polarization competition with FITC-geldanamycin; format: binding
[2] = biological target: PDHK1 (Homo sapiens, UniProt Q15118); assay: HotSpot […]-ATP radiometric filter-binding kinase assay; format: biochemical
Chain of PDHK1 (Q15118 29-436): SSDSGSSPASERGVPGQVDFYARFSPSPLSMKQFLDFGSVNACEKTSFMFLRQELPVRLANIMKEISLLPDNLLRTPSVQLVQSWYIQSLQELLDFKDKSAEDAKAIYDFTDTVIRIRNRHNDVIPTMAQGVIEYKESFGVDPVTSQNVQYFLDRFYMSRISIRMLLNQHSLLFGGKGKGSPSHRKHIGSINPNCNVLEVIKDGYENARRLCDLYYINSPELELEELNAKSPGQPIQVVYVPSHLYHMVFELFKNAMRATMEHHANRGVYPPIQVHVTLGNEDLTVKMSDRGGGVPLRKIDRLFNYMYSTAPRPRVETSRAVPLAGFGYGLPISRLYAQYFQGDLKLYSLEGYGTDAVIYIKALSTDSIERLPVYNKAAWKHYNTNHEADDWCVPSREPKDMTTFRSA

**Q.** With `CC(C)c1cc(-n2nnc(C(=O)Nc3cccc(NS(C)(=O)=O)c3)c2-c2ccncc2)c(O)cc1O` [4a, 1‐(2,4‐dihydroxy‐5‐isopropylphenyl)‐N‐[3‐(methylsulfonamido)phenyl]‐5‐(pyridin‐4‐yl)‐1H‐1,2,3‐triazole‐4‐carboxamide] as the compound, how does the IC50 [1] read?
**A.** The IC50 was 7 nM.

**Q.** And the IC50 [2]?
**A.** The IC50 was 28700 nM.

**Q.** How did the IC50 [1] turn out when `CC(C)c1cc(-n2nnc(C(=O)Nc3c(F)ccc(NS(C)(=O)=O)c3F)c2-c2ccncc2)c(O)cc1O` [4b, N‐[2,6‐difluoro‐3‐(methylsulfonamido)phenyl]‐1‐(2,4‐dihydroxy‐5‐isopropylphenyl)‐5‐(pyridin‐4‐yl)‐1H‐1,2,3‐triazole‐4‐carboxamide] was run?
**A.** The IC50 was 1700 nM.

**Q.** How did the IC50 [1] turn out when `CCS(=O)(=O)Nc1ccc(F)c(NC(=O)c2nnn(-c3cc(C(C)C)c(O)cc3O)c2-c2ccncc2)c1F` [4c, 1‐(2,4‐dihydroxy‐5‐isopropylphenyl)‐N‐[3‐(ethylsulfonamido)‐2,6‐difluorophenyl]‐5‐(pyridin‐4‐yl)‐1H‐1,2,3‐triazole‐4‐carboxamide] was run?
**A.** The IC50 was 1100 nM.

**Q.** With `CCCS(=O)(=O)Nc1ccc(F)c(NC(=O)c2nnn(-c3cc(C(C)C)c(O)cc3O)c2-c2ccncc2)c1F` [4d, N‐[2,6‐difluoro‐3‐(propylsulfonamido)phenyl]‐1‐(2,4‐dihydroxy‐5‐isopropylphenyl)‐5‐(pyridin‐4‐yl)‐1H‐1,2,3‐triazole‐4‐carboxamide] as the compound, how does the IC50 [1] read?
**A.** Its IC50 is 30 nM.

**Q.** What about the IC50 [2] of the same compound?
**A.** Its IC50 is 38300 nM.

**Q.** How did the IC50 [2] turn out when `O=C1Nc2ccc(I)cc2C1=Cc1cc(Br)c(O)c(Br)c1` [GW5074, reference compound] was run?
**A.** The IC50 was 7100 nM.
